Results on one compound are retold here after US6399645B1, “Chemoprevention and treatment of cervical or vaginal neoplasia” (priority 2000, dated 2002).

Test [1] relates to cervical intraepithelial neoplasia (CIN). In words: Placebo-controlled trial of oral indole-3-carbinol in patients with histologically confirmed CIN, 12 weeks. It counts as in vivo, human. Conditions: for patients with complete regression based on 12-week biopsy: placebo 0 of 10; for mean grade change of CIN: placebo 1.22. The protocol: Thirty subjects with histologically confirmed CIN were enrolled. Eligibility requirements were as follows: adequate colposcopy, negative ECC, no suspicion of invasion, non-pregnant, and […]. Evaluating colposcopists and patients were blinded to the treatment. All residents and staff involved in the study were instructed regarding the protocol. The patients were randomized to placebo, 200 mg/day, or 400-mg/day treatment of indole-3-carbinol administered orally for 12 weeks. Randomization was performed by successively assigning patients from a computer-generated randomization table. […] All patients underwent colposcopy at the initial visit as well as at their 4-week, 8-week, and 12-week visit. Photodocumentation of each colposcopic examination was obtained. At the end of the trial, each patient was reexamined, and if the patient had persistent CIN on 12-week biopsy, or if the colposcopic impression was persistent CIN, they underwent LEEP of the transformation zone. The dysplasia was classified by the pathologists in the usual manner and defined as follows: mild dysplasia meaning the presence of immature (dysplastic) cells present in the lower third of the squamous mucosa, moderate dysplasia in the lower two thirds, severe dysplasia the lower three fourths of the thickness of the mucosa and carcinoma in situ (“CIS”) full thickness immaturity. The cases were originally diagnosed by a sign out pathologist. The diagnosis of all cases was verified by the same pathologist for uniformity. In all cases, the pathologist was in agreement with the pathologist that had signed out the case. HPV status was assessed in all patients by Hybrid capture assay tests ([…] Diagnostics; Beltsville, MD) for low-risk (HPV types 6, 11, 42, 43, 44) and high-risk (HPV types 16, 18, 31, 33, 35, 45, 51, 52, 56). If the Hybrid capture assay was negative; a follow-up polymerase chain reaction (PCR) analysis was performed using consensus primers shown below for the L-1 region of HPV to confirm HPV positivity. The PCR amplification conditions were optimized using DNA isolated from paraffin embedded control HPV positive cervical cancer specimens prior to analysis of the study patient'samples.

The next test relates to estradiol metabolism. In words: Urinary 2-hydroxyestrone to 16-alpha-hydroxyestrone ratio by ELISA in trial patients. It counts as in vivo, human. The protocol:
Clean catch urine specimens were obtained from each patient at the initial visit and again at their 4-week visit. 2-hydroxyestrone to 16-alpha-hydrosytestrone ratios were assessed in each urine sample. Ascorbic acid was added to the urine specimens to aid in preservation for accurate analysis. ELISA assays were performed to assess the quantity of 2-hydroxyestrone and 16-alpha-hydroxyestrone in each urine sample, and were reported in ng/ml.
In general terms: ELISA stands for enzyme-linked immunosorbent assay.

Another test has as its system mammary carcinogenesis. The note with it: rat model; cited from earlier work.
For test [2], the system named is HPV-induced benign tumors of laryngeal tissue. The note with it: mouse model; cited from earlier work.

As for `OCc1c[nH]c2ccccc12` [I3C, 1H-indole-3-methanol], the “relative risk (RR), protective effect” value in test [1] (200 mg/day group vs placebo, 95% CI 0.25 to 0.99, p=0.023) turned out to be 0.50; in test [1] (400 mg/day group vs placebo, 95% CI 0.31 to 0.99, p=0.032) it was 0.55. Moreover, the “patients with complete regression based on 12-week biopsy” value in test [1] (200 mg/day orally for 12 weeks, 4 of 8 patients) stood at 50.0%; in test [1] (400 mg/day orally for 12 weeks, 4 of 9 patients) it was 44.4%. The “mean grade change of CIN” value in test [1] (200 mg/day orally for 12 weeks) was found to be 1.38; in test [1] (400 mg/day orally for 12 weeks) it was 1.78. For the same compound, in test [1] (12 weeks of daily oral administration, summary statement), the “patients with complete regression of CIN” value is reported as “Roughly half”. For the same compound, the “correlation of HPV presence with response” value in test [1] (HPV status by Hybrid capture assay / PCR) is reported as “presence of HPV does not correlate with response”. Moreover, in test [1] (placebo, 200 mg/day and 400 mg/day groups), the “dose response of mean grade of CIN regression” value is listed as “linear dose response relationship”. In the test with estradiol metabolism (200 mg/day and 400 mg/day groups, initiation vs 4 weeks, placebo showed a decrease), the “change of urinary 2-hydroxyestrone to 16-alpha-hydroxyestrone ratio before and after therapy” value was “general trend in increase in the ratios”. The “physiologic effect of the drug” value in the test on estradiol metabolism (conclusion of the placebo-controlled trial) is “seen in a dose-dependent fashion”. In addition, the “inhibition of mammary carcinogenesis” value with mammary carcinogenesis was “effective in inhibiting mammary carcinogenesis”. Moreover, the “growth of HPV-induced benign tumors of laryngeal tissue” value in test [2] is “inhibits growth”.
